From the kinase profiling compilation of Christmann-Franck et al. (2016)

Tests used:
Test in all cases: KINOMEscan competition binding
Details in all cases: compound 10.0 µM
TXK (human) = TXK (human) (UniProt P42681)
PRKG2 (human) = PRKG2 (human) (UniProt Q13237)
TEC (human) = TEC (human) (UniProt P42680)
FER (human) = FER (human) (UniProt P16591)
CDK11B (human) = CDK11B (human) (UniProt P21127)
MAP3K12 (human) = MAP3K12 (human) (UniProt Q12852)
PAK2 (human) = PAK2 (human) (UniProt Q13177)
MAPK6 (human) = MAPK6 (human) (UniProt Q16659)
GSK3A (human) = GSK3A (human) (UniProt P49840)
MAPK15 (human) = MAPK15 (human) (UniProt Q8TD08)
[1] = target: JAK1 JH2 pseudokinase (human) (UniProt P23458)
MAP3K3 (human) = MAP3K3 (human) (UniProt Q99759)
RPS6KA5 KD2 (human) = RPS6KA5 KD2 (human) (UniProt O75582)
CAMK2A (human) = CAMK2A (human) (UniProt Q9UQM7)
CAMK2A (human), sequence (Q9UQM7 whole entry, looked up): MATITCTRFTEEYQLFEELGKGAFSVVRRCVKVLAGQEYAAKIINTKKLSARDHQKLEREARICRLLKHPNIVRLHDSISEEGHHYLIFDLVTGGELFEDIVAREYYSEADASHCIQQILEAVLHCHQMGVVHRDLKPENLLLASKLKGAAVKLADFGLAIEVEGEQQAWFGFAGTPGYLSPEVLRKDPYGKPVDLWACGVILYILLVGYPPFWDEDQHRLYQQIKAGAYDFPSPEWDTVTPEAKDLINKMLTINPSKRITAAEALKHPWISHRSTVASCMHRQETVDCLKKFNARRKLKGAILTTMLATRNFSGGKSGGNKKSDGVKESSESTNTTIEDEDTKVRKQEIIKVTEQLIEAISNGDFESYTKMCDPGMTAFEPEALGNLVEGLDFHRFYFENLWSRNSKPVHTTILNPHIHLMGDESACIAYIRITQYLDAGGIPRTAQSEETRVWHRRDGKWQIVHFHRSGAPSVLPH

NUAK2 (human) = NUAK2 (human) (UniProt Q9H093)
PIP5K1A (human) = PIP5K1A (human) (UniProt Q99755)
PIP5K1A (human), sequence (Q99755 whole entry, looked up): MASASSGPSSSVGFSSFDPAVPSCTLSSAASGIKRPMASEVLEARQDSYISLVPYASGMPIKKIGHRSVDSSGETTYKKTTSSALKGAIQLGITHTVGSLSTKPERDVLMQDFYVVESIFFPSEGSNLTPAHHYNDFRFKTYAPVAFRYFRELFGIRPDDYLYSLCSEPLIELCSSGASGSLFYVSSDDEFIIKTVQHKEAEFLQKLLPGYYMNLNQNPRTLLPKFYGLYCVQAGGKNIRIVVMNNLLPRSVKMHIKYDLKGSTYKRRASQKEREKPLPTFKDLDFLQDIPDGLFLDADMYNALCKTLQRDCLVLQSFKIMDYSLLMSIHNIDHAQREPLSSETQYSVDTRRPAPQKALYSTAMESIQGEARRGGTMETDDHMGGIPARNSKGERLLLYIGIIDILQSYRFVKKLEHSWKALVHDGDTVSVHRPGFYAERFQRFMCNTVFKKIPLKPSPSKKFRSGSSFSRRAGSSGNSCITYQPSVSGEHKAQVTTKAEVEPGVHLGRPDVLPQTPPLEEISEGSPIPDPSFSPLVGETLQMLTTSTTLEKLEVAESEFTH

TGFBR2 (human) = TGFBR2 (human) (UniProt P37173)
ROS1 (human) = ROS1 (human) (UniProt P08922)
ROS1 (human), sequence (P08922 whole entry, looked up): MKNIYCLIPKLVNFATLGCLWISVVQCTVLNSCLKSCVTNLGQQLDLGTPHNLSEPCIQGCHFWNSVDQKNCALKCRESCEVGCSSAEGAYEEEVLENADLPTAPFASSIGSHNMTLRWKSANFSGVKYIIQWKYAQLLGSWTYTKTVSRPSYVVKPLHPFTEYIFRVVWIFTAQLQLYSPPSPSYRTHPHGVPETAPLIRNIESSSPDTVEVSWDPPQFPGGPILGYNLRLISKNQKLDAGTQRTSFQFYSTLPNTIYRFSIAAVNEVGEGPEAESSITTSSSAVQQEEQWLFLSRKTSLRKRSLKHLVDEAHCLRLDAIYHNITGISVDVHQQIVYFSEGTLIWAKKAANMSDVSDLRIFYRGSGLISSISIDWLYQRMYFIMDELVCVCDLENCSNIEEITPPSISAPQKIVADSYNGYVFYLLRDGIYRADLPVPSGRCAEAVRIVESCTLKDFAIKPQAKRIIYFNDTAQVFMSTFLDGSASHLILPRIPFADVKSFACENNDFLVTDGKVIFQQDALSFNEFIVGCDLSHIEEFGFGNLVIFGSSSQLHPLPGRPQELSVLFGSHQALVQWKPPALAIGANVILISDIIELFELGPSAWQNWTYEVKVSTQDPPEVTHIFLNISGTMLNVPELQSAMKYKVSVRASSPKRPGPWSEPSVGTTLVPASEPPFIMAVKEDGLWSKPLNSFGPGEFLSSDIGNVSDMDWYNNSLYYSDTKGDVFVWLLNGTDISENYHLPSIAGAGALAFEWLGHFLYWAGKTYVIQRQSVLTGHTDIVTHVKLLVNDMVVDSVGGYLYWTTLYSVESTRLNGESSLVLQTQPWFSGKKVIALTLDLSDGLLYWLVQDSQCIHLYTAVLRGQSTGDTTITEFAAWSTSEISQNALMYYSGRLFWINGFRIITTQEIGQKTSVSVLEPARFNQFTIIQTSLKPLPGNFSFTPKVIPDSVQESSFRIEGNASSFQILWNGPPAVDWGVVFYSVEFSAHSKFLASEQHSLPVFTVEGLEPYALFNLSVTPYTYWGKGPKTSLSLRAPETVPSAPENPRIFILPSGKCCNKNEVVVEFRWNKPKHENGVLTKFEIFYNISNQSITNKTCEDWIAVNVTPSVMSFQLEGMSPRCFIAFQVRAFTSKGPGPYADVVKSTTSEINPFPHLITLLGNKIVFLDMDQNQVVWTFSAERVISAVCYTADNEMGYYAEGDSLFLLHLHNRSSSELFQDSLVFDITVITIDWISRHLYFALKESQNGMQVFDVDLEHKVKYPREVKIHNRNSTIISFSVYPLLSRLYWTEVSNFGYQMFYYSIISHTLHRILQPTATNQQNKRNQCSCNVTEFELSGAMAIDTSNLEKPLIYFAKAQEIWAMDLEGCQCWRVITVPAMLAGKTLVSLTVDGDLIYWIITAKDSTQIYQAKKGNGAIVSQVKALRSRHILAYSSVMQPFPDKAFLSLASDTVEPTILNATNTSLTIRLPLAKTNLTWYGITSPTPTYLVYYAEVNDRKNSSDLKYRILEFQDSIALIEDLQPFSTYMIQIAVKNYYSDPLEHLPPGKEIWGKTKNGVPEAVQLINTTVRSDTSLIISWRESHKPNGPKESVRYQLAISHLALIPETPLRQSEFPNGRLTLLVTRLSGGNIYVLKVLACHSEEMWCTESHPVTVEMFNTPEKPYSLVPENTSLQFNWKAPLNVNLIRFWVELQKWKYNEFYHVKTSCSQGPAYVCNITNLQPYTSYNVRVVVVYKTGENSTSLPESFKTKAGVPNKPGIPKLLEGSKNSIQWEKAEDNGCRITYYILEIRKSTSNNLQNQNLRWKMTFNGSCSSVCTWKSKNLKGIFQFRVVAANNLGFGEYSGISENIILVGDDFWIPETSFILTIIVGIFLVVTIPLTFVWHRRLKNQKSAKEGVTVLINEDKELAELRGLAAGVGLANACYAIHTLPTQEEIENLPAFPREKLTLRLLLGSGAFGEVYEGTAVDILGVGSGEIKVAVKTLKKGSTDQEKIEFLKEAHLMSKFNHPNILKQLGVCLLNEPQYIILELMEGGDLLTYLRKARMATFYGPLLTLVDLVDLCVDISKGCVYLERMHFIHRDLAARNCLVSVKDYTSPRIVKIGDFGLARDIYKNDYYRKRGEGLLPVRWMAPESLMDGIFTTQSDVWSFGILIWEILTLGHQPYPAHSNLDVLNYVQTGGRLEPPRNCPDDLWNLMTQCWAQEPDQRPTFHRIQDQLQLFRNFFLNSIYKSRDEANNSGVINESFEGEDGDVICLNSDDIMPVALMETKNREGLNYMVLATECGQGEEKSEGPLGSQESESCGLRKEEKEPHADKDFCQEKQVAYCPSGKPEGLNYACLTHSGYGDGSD

LIMK2 (human) = LIMK2 (human) (UniProt P53671)
CSNK1G3 (human) = CSNK1G3 (human) (UniProt Q9Y6M4)
AXL (human) = AXL (human) (UniProt P30530)
IKBKB (human) = IKBKB (human) (UniProt O14920)
FES (human) = FES (human) (UniProt P07332)
TESK1 (human) = TESK1 (human) (UniProt Q15569)
PDGFRB (human) = PDGFRB (human) (UniProt P09619)
SIK1 (human) = SIK1 (human) (UniProt P57059)
NEK5 (human) = NEK5 (human) (UniProt Q6P3R8)
MARK4 (human) = MARK4 (human) (UniProt Q96L34)
MYLK4 (human) = MYLK4 (human) (UniProt Q86YV6)
MYLK4 (human), sequence (Q86YV6 whole entry, looked up): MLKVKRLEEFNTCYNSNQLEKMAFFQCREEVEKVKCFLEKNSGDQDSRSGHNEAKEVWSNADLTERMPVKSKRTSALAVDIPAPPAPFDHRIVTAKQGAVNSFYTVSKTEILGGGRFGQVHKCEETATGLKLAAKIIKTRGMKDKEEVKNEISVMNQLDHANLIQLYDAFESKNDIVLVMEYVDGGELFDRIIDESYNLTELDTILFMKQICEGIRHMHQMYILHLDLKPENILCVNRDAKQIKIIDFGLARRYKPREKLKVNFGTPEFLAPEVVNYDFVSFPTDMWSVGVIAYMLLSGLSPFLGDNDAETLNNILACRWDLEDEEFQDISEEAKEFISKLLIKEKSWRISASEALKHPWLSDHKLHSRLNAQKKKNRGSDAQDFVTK

ACVR2B (human) = ACVR2B (human) (UniProt Q13705)
EPHA5 (human) = EPHA5 (human) (UniProt P54756)
MST4 (human) = MST4 (human) (UniProt Q9P289)
PIK3CD (human) = PIK3CD (human) (UniProt O00329)
ROCK2 (human) = ROCK2 (human) (UniProt O75116)
LCK (human) = LCK (human) (UniProt P06239)
LCK (human), sequence (P06239 whole entry, looked up): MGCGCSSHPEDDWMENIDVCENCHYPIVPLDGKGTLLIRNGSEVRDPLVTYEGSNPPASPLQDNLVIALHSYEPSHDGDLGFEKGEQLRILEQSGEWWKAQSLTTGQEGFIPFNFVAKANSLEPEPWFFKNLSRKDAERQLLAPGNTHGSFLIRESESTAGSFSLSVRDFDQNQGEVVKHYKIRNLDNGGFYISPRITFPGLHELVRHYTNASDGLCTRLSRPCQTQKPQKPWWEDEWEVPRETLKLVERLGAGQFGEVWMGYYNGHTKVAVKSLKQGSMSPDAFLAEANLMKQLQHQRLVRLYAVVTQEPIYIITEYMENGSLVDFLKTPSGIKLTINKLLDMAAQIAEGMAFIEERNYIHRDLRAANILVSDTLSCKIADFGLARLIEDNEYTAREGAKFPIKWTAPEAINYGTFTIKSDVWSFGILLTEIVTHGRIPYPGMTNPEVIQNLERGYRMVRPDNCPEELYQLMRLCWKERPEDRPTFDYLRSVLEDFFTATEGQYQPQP

TEK (human) = TEK (human) (UniProt Q02763)
PRKD1 (human) = PRKD1 (human) (UniProt Q15139)
[2] = test system: KIT (human), P10721 [D816V]
ITK (human) = ITK (human) (UniProt Q08881)
MAP2K3 (human) = MAP2K3 (human) (UniProt P46734)

PAK2 (human), sequence (Q13177 whole entry, looked up): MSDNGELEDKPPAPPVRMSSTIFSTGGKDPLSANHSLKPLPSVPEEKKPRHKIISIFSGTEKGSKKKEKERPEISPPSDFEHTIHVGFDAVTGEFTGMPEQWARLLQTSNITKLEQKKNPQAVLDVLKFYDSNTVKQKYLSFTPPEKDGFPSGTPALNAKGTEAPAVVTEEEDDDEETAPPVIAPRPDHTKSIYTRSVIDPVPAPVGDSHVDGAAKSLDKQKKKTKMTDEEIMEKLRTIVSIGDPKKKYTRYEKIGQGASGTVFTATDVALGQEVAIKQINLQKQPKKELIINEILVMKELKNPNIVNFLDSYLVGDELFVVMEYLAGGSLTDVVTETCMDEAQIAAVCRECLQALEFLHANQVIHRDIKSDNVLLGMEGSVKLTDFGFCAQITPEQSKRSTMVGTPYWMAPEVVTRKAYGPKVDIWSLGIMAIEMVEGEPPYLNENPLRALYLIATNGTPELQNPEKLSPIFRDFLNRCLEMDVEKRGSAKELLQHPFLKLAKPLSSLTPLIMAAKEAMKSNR

SMILES | kinase still bound, per cent of control (TXK (human)) | kinase still bound, per cent of control (TEC (human)) | kinase still bound, per cent of control (FER (human)) | kinase still bound, per cent of control (CDK11B (human)) | kinase still bound, per cent of control (MAP3K12 (human)) | kinase still bound, per cent of control (PAK2 (human)) | kinase still bound, per cent of control (MAPK6 (human)) | kinase still bound, per cent of control (GSK3A (human)) | kinase still bound, per cent of control (MAPK15 (human)) | kinase still bound, per cent of control [1] | kinase still bound, per cent of control (MAP3K3 (human)) | kinase still bound, per cent of control (RPS6KA5 KD2 (human)) | kinase still bound, per cent of control (CAMK2A (human)) | kinase still bound, per cent of control (NUAK2 (human)) | kinase still bound, per cent of control (PIP5K1A (human)) | kinase still bound, per cent of control (TGFBR2 (human)) | kinase still bound, per cent of control (ROS1 (human)) | kinase still bound, per cent of control (LIMK2 (human)) | kinase still bound, per cent of control (AXL (human)) | kinase still bound, per cent of control (IKBKB (human)) | other results
O=C(O)c1ccc(Nc2ncc3c(n2)-c2ccc(Cl)cc2C(c2c(F)cccc2F)=NC3)cc1 | 46% | 2% | 22% | 89% | 100% | 71% | 92% | 100% | 90% | 80% | 72% | 74% | 69% | 85% | 100% | 58% | 23% | 94% | 4.4% | 100% | kinase still bound, per cent of control (PRKG2 (human)): 96%; kinase still bound, per cent of control (CSNK1G3 (human)): 93%; kinase still bound, per cent of control (FES (human)): 100%; kinase still bound, per cent of control (TESK1 (human)): 100%; kinase still bound, per cent of control (PDGFRB (human)): 34%; kinase still bound, per cent of control (SIK1 (human)): 5.7%; kinase still bound, per cent of control (NEK5 (human)): 46%; kinase still bound, per cent of control (MARK4 (human)): 100%; kinase still bound, per cent of control (MYLK4 (human)): 89%; kinase still bound, per cent of control (ACVR2B (human)): 100%; kinase still bound, per cent of control (EPHA5 (human)): 1.5%; kinase still bound, per cent of control (MST4 (human)): 100%; kinase still bound, per cent of control (PIK3CD (human)): 88%; kinase still bound, per cent of control (ROCK2 (human)): 89%; kinase still bound, per cent of control (LCK (human)): 1.6%; kinase still bound, per cent of control (TEK (human)): 3%; kinase still bound, per cent of control (PRKD1 (human)): 92%
CCCS(=O)(=O)Nc1ccc(F)c(C(=O)c2c[nH]c3ncc(-c4ccc(Cl)cc4)cc23)c1F | 59% | 100% | 54% | 100% | 62% | 80% | 100% | 54% | 89% | 100% | 82% | 100% | 100% | 98% | 100% | 2.5% | 100% | 24% | 8.4% | 100% | kinase still bound, per cent of control [2]: 52%; kinase still bound, per cent of control (ITK (human)): 100%; kinase still bound, per cent of control (CSNK1G3 (human)): 100%; kinase still bound, per cent of control (FES (human)): 41%; kinase still bound, per cent of control (TESK1 (human)): 29%; kinase still bound, per cent of control (PDGFRB (human)): 0.15%; kinase still bound, per cent of control (SIK1 (human)): 2.8%; kinase still bound, per cent of control (NEK5 (human)): 100%; kinase still bound, per cent of control (MARK4 (human)): 100%; kinase still bound, per cent of control (MYLK4 (human)): 0.45%; kinase still bound, per cent of control (ACVR2B (human)): 27%; kinase still bound, per cent of control (EPHA5 (human)): 98%; kinase still bound, per cent of control (MST4 (human)): 100%; kinase still bound, per cent of control (PIK3CD (human)): 89%; kinase still bound, per cent of control (ROCK2 (human)): 77%; kinase still bound, per cent of control (LCK (human)): 1.6%; kinase still bound, per cent of control (TEK (human)): 62%; kinase still bound, per cent of control (PRKD1 (human)): 8.2%
CCOc1cc2ncc(C#N)c(Nc3ccc(OCc4ccccn4)c(Cl)c3)c2cc1NC(=O)/C=C/CN(C)C | 86% | 73% | 37% | 97% | 36% | 34% | 100% | 97% | 100% | 100% | 3.8% | 77% | 90% | 8.8% | 100% | 100% | 96% | 100% | 5.4% | 100% | kinase still bound, per cent of control (PRKG2 (human)): 92%; kinase still bound, per cent of control [2]: 70%; kinase still bound, per cent of control (MAP2K3 (human)): 100%; kinase still bound, per cent of control (ITK (human)): 52%; kinase still bound, per cent of control (TESK1 (human)): 100%; kinase still bound, per cent of control (PDGFRB (human)): 69%; kinase still bound, per cent of control (SIK1 (human)): 31%; kinase still bound, per cent of control (NEK5 (human)): 100%; kinase still bound, per cent of control (MARK4 (human)): 87%; kinase still bound, per cent of control (MYLK4 (human)): 86%; kinase still bound, per cent of control (ACVR2B (human)): 100%; kinase still bound, per cent of control (EPHA5 (human)): 100%; kinase still bound, per cent of control (MST4 (human)): 2%; kinase still bound, per cent of control (ROCK2 (human)): 86%; kinase still bound, per cent of control (LCK (human)): 3.7%; kinase still bound, per cent of control (TEK (human)): 56%; kinase still bound, per cent of control (PRKD1 (human)): 74%
Cc1cc([C@@H](C)Nc2ccccc2C(=O)O)c2nc(N3CCOCC3)cc(=O)n2c1 | 90% | 91% | 100% | 100% | 85% | 100% | 100% | 100% | 100% | 100% | 87% | 91% | 75% | 84% | 100% | 95% | 100% | 100% | 86% | 90% | kinase still bound, per cent of control (PRKG2 (human)): 98%; kinase still bound, per cent of control [2]: 81%; kinase still bound, per cent of control (MAP2K3 (human)): 100%; kinase still bound, per cent of control (ITK (human)): 98%; kinase still bound, per cent of control (CSNK1G3 (human)): 100%; kinase still bound, per cent of control (FES (human)): 94%; kinase still bound, per cent of control (TESK1 (human)): 100%; kinase still bound, per cent of control (PDGFRB (human)): 100%; kinase still bound, per cent of control (SIK1 (human)): 100%; kinase still bound, per cent of control (NEK5 (human)): 100%; kinase still bound, per cent of control (MARK4 (human)): 100%; kinase still bound, per cent of control (MYLK4 (human)): 98%; kinase still bound, per cent of control (ACVR2B (human)): 100%; kinase still bound, per cent of control (EPHA5 (human)): 99%; kinase still bound, per cent of control (MST4 (human)): 100%; kinase still bound, per cent of control (ROCK2 (human)): 91%; kinase still bound, per cent of control (LCK (human)): 97%; kinase still bound, per cent of control (TEK (human)): 100%; kinase still bound, per cent of control (PRKD1 (human)): 89%
